Laboratory results taken from patent US11384065B2, “Heterocyclic compound as CSF-1R inhibitor and use thereof” (MEDSHINE DISCOVERY INC., priority 2018, dated 2022).

How the values were obtained:
CSF-1R = CSF-1R (Homo sapiens (Human), UniProt P07333); assay: In vitro inhibitory activity on CSF-1R kinase (33P-ATP filter-binding, Reaction Biology Corporation); assay type: biochemical; details: CSF-1R 2.5 nM, filter-binding method
Method: Experimental Example 1: In Vitro Inhibitory Activity of the Compounds of the Present Invention on CSF-1R in Terms of Enzymology The compounds of the present invention for experiments were made in house, and their structural formulas were shown in the preparation examples of each compound. The experimental tests were conducted at Reaction Biology Corporation in the United States, and the experimental results were provided by the company. Experimental Reagents: Necessary reaction buffer: 20 mM hydroxyethylpiperazine ethanesulfonic acid (pH 7.5), 10 mM magnesium chloride, 1 mM EGTA, 0.02% Brij35, 0.02 mg/mL bovine serum albumin, 0.1 mM Na3VO4, 2 mM DTT, 1% DMSO. The necessary cofactors were added separately to the CSF-1R kinase reaction. Enzyme: the concentration of CSF-1R was 2.5 nM Treatment with the Compounds: The compound to be tested was formulated with 100% DMSO into a solution with a specific concentration, and serial dilution was performed with DMSO through the intelligent pipetting assistant Integra Viaflo Assist. Experimental Procedure: […] All necessary cofactors were added to the above reaction buffer; CSF-1R kinase was added to the above matrix solution and shaken gently; Using acoustic technology (Echo550; nanoliter range), a solution of the compound in DMSO was added to the above kinase reaction mixture, and the reaction solution was incubated at room temperature for 20 minutes; ^33P-ATP (specific activity, 10 μCi/μl) was added to the above kinase reaction mixture to initiate the reaction; The reaction solution was incubated at room temperature for 2 hours; The kinase activity was detected by the filter-binding method; The kinase activity was the ratio of the remaining kinase in the test sample to the vehicle (DMSO) group. IC50 values and profiles were obtained using Prism (GraphPad software).

[1] = Pharmacokinetic study after intravenous injection and oral administration (plasma, LC-MS/MS); assay type: in vivo, rats; details: for AUC(0-t) / C0 / Vd / clearance / half-life / Cmax: male, SD, rat, plasma
Excerpt: Example 2 Pharmacokinetic Study on Mice and Rats (PK)
The purpose of this experiment was to study the pharmacokinetics of the test article in the plasma of male C57BL/6J mice and SD rats after intravenous injection and oral administration.
The animals were randomly divided into two groups with 2 males in each group. The compounds were formulated into prescribed preparations. Preparations for intravenous injection were clear solutions, and oral preparations could be clear or homogeneous suspensions.
Whole blood samples were collected from the jugular vein puncture or saphenous vein of the animals 5 minutes, 15 minutes, 30 minutes, 1 hour, 2 hours, 4 hours, 6 hours, and 8 hours after administration. The whole blood sample was added to the centrifuge tube containing anticoagulant, and centrifuged at 3000 g for 15 minutes at 4° C. The supernatant of plasma was taken, frozen quickly on dry ice, and then stored in a −70° C.±10° C. refrigerator until LC-MS/MS analysis.
WinNonlin™ Version 6.3.0 (Pharsight, Mountain View, Calif.) pharmacokinetic software was used to process the plasma drug concentration data of the compounds with a non-compartmental model. The peak concentration (Cmax), peak time (Tmax) and quantifiable end time were obtained directly from the blood drug concentration-time profile.
The following pharmacokinetic parameters were calculated using the log-linear trapezoid method: Plasma clearance rate (CL), volume of distribution (Vd), elimination phase half-life (T1/2), average residence time of drug in the body from 0 to the end time point (MRT0-last), average residence time of the drug in the body from 0 to infinite time (MRT0-inf), area under the time-plasma concentration curve from 0 to the end time point (AUC0-last), area under the time-plasma concentration curve from 0 to infinite time (AUC0-inf) and bioavailability (F), C0 was the initial concentration.

Chain of CSF-1R (P07333 20-972): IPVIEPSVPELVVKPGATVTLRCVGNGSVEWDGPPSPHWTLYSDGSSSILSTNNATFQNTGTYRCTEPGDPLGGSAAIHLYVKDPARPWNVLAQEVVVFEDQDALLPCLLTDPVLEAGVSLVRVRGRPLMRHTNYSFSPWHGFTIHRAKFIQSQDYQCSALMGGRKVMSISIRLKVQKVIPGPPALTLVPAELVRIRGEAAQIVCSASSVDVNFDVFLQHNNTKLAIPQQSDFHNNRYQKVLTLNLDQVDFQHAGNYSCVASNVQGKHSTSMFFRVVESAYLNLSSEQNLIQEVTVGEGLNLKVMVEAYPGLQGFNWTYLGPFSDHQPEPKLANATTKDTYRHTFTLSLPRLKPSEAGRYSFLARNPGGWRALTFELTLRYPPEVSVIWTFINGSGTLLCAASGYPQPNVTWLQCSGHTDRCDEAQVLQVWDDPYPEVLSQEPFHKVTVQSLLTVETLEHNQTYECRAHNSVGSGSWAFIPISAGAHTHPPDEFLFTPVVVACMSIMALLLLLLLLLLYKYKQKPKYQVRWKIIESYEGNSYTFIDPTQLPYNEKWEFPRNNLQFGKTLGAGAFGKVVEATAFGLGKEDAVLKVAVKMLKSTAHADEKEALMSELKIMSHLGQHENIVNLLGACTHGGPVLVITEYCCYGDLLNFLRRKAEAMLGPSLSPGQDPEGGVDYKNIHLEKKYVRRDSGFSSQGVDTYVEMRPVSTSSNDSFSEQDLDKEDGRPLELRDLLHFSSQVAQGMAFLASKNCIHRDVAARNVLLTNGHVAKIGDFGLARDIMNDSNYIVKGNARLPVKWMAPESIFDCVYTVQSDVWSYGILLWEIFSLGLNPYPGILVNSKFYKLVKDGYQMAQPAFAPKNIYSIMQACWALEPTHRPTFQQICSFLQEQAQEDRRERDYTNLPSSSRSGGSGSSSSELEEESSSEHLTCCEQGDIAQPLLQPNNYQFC

Row | IC50 (CSF-1R) [nM] | Compound | also measured
1 | 1.68 | CNc1ccc(-c2cnc(Nc3ccc(OC4CC4)nc3)cc2C)c2c1C(=O)NC2 [Compound 5] | 
2 |  | COc1ccc(-c2ccc(NC(=O)Nc3cccc(C)c3)cc2)c2c1C(=O)NC2 [Control compound, reference compound] | F ([1]; PO (10 mpk)): 3.92%; AUC(0-t) ([1]; 1 mg/kg, IV (1 mpk)): 0.918 µM·h; C0 ([1]; 1 mg/kg, IV (1 mpk)): 3.72 µM; Vd ([1]; 1 mg/kg, IV (1 mpk)): 1.48 L/kg; clearance ([1]; 1 mg/kg, IV (1 mpk)): 46.7 mL/min/kg; half-life ([1]; 1 mg/kg, IV (1 mpk)): 0.92 h; AUC(0-t) ([1]; 10 mg/kg, PO (10 mpk)): 0.333 µM·h; Cmax ([1]; 10 mg/kg, PO (10 mpk)): 0.104 µM
3 | 3.43 | CNc1ccc(-c2cnc(Nc3ccc(OC4CC4)nn3)cc2C)c2c1C(=O)NC2 [Compound 18] | 
4 | 3.78 | CNc1ccc(-c2cnc(Nc3ncc(C4CC4)cn3)cc2C)c2c1C(=O)NC2 [Compound 13] | 
5 | 2.61 | CNc1ccc(-c2cnc(Nc3cnc(C4CC4)nc3)cc2C)c2c1C(=O)NC2 [Compound 10] | F ([1]; PO (10 mpk)): 106%; AUC(0-t) ([1]; 1 mg/kg, IV (1 mpk)): 18.7 µM·h; C0 ([1]; 1 mg/kg, IV (1 mpk)): 6.29 µM; Vd ([1]; 1 mg/kg, IV (1 mpk)): 0.495 L/kg; clearance ([1]; 1 mg/kg, IV (1 mpk)): 2.31 mL/min/kg; half-life ([1]; 1 mg/kg, IV (1 mpk)): 2.53 h; AUC(0-t) ([1]; 10 mg/kg, PO (10 mpk)): 198 µM·h; Cmax ([1]; 10 mg/kg, PO (10 mpk)): 33 µM
6 | 12.1 | CNc1ccc(-c2cnc(Nc3ccn(C4CC4)c(=O)c3)cc2C)c2c1C(=O)NC2 [Compound 20] | 
7 | 3.06 | Cc1cc(NCc2ccc(C(F)(F)F)nc2)ncc1-c1ccc(N(C)C)c2c1CNC2=O [Compound 1] | 
8 | 2.55 | CNc1ccc(-c2cnc(Nc3cnc(OC4CC4)cn3)cc2C)c2c1C(=O)NC2 [Compound 19] | 
9 | 0.82 | CNc1ccc(-c2cnc(Nc3ccc(C4CC4)nc3)cc2C)c2c1C(=O)NC2 [Compound 15] | 
10 | 4.98 | CNc1ccc(-c2cnc(Nc3ccc(OC(F)F)nc3)cc2C)c2c1C(=O)NC2 [Compound 8] | 
11 | 1.89 | CNc1ccc(-c2cnc(Nc3cnc(C4CC4)cn3)cc2C)c2c1C(=O)NC2 [Compound 12] | 
12 | 2.49 | CNc1ccc(-c2cnc(Nc3cnc(OC4CC4)nc3)cc2C)c2c1C(=O)NC2 [Compound 16] | 
13 | 24.5 | CC(=O)Nc1ccc(-c2cnc(NCc3ccc(C(F)(F)F)nc3)cc2C)c2c1C(=O)NC2 [Compound 3] | 
14 | 4.15 | CNc1ccc(-c2cnc(Nc3ccc(OC4CC4)cn3)cc2C)c2c1C(=O)NC2 [Compound 17] | 
15 | 4.71 | CNc1ccc(-c2cnc(Nc3ccc(C4CC4)nn3)cc2C)c2c1C(=O)NC2 [Compound 11] | 
16 | 2.5 | CNc1ccc(-c2cnc(Nc3ccc(C4CC4)cn3)cc2C)c2c1C(=O)NC2 [Compound 14] | 
17 | 5.01 | CNc1ccc(-c2cnc(Nc3ccc(C4(C#N)CC4)nc3)cc2C)c2c1C(=O)NC2 [Compound 6] | 
18 | 1.87 | CCOc1ccc(Nc2cc(C)c(-c3ccc(NC)c4c3CNC4=O)cn2)cn1 [Compound 7] | 
19 | 1.55 | Cc1cc(NCc2ccc(C(F)(F)F)nc2)ncc1-c1ccc(N)c2c1CNC2=O [Compound 2] | 
20 | 1.27 | CNc1ccc(-c2cnc(NCc3ccc(C(F)(F)F)nc3)cc2C)c2c1C(=O)NC2 [Compound 4] | 
21 | 1.41 | CNc1ccc(-c2cnc(Nc3ccc(N(C)C)nc3)cc2C)c2c1C(=O)NC2 [Compound 9] | 
